In patent US11866430B2, “Naphthyridinone compounds useful as T cell activators” (priority 2018, dated 2024):
Like-named read-outs stand apart in the source and are kept apart here.

Columns and labels:
[1] = biological target: human DGKα (Homo sapiens (Human), UniProt P23743); experiment: DGKα LIPGLO assay (extruded liposome substrate); format: biochemical
Procedure, shortened: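 Human full-length DGKα, His-tagged and produced in Sf9 cells, assayed at 20 nM (4× stock) on extruded liposomes of PS, 0.25 mM DAG and 2.75 mM PC, preincubated 10 min. Reaction started with 300 μM ATP (stock) and ran 1 h in MOPS pH 7.5/MgCl2/CaCl2/DTT buffer.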

[2] = system: OT-1 antigen-specific CD8+ T cells with MC38 tumor cells; experiment: Murine Cytotoxic T Lymphocyte Assay (IFN-γ); format: cell-based, mouse
Text: An antigen-specific cytolytic T-cell (CTL) assay was developed to evaluate functionally the ability of DGKα and DGKζ inhibitors to enhance effector T cell mediated tumor cell killing activity. CD8+ T-cells isolated from the OT-1 transgenic mouse recognize antigen presenting cells, MC38, that present the ovalbumin derived peptide […]. Recognition of the cognate antigen initiates the cytolytic activity of the OT-1 antigen-specific CD8+ T cells.
Functional CTL cells were generated as follows: OT-1 splenocytes from 8-12 week old mice were isolated and expanded in the presence of the […] peptide at 1 μg/mL and mIL2 at 10 U/mL. After three days, fresh media with mIL2 U/mL was added. On day 5 of the expansion, the CD8+ T cells were isolated and ready for use. Activated CTL cells may be stored frozen for 6 months. […] The cells were washed (3×) with fresh media to remove excess peptide. Finally, CTL cells that were pretreated with DGK inhibitors for 1 hour in a 96-well U bottom plate were combined with the antigen loaded MC38 tumor cells at a 1:10 ratio. The cells were then spun at 700 rpm for 5 min and placed in an incubator overnight at 37° C. After 24 hours, the supernatant was collected for analysis of IFN-γ cytokine levels by AlphaLisa purchased from Perkin Elmer.

[3] = system: Jurkat AP1-luciferase Reporter; experiment: DGK AP1-Reporter Assay; format: cell-based
Procedure, shortened: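 Jurkat cells carrying a lentiviral AP1-luciferase reporter received 30 nl compound per well for 20 min at 37 °C and 5% CO2. They were then stimulated for 6 h with anti-CD3 solution at 0.4 μg/mL; reference wells received 4 μg/mL and unstimulated wells medium only. Readout was Steady-Glo luciferase luminescence (RLU).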

[4] = Mus musculus, MC-38, read-out: msCTL INF-γ IC50, murine CTL IFN-γ (table title reads INF-γ Whole Blood Normalized Agonist EC50)
[5] = Homo sapiens, Jurkat, read-out: API-Luciferase Reporter IC50, Table 3
[6] = Homo sapiens, Jurkat, read-out: DGKAP1 Lucif Reporter IC50, Table 4
[7] = read-out: API-Luciferase Reporter IC50, Table 3
[8] = read-out: msCTL INF-γ IC50, murine CTL IFN-γ (table title reads INF-γ Whole Blood Normalized Agonist EC50)

human DGKα, sequence (P23743 other isoform, or with tags, fused parts or gaps): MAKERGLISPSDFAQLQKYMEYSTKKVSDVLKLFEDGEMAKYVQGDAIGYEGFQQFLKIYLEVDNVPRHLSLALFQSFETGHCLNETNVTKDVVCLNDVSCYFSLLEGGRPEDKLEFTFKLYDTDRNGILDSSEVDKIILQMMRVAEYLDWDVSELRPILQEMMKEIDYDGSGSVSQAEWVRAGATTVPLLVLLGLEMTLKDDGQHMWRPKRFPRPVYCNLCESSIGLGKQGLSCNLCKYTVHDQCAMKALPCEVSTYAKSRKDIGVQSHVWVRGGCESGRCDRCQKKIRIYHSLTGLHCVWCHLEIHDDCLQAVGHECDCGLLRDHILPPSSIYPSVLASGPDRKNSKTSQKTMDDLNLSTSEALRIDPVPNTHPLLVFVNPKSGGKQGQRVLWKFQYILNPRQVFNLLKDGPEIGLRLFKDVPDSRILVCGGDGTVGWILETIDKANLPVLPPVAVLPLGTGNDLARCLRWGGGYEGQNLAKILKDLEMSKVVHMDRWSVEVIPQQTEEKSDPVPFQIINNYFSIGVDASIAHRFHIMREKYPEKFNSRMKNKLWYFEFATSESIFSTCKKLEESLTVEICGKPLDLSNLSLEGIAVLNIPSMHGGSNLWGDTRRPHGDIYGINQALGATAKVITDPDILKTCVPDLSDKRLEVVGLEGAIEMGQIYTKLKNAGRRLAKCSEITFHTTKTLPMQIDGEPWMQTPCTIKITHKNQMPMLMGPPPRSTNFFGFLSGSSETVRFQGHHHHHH

Structure (SMILES) | IC50 [1] [nM] | IC50 [2, 4] [nM] | IC50 [3, 5] [nM] | IC50 [3, 6] [nM] | IC50 [3, 7] [nM] | IC50 [2, 8] [nM] | IC50 ([3]; read-out: DGKAP1 Lucif Reporter IC50, Table 4) [nM]
COc1ccc2c(n1)c(N1CCN(C(c3ccc(F)cc3)c3ccc(F)cc3OC)CC1)c(C#N)c(=O)n2C (racemic) [Example 412, 4-{4-[(4-fluoro-2-methoxyphenyl)(4-fluorophenyl)methyl]piperazin-1-yl}-6-methoxy-1-methyl-2-oxo-1,2-dihydro-1,5-naphthyridine-3-carbonitrile] | 1800 | 360 |  |  |  |  | 
COc1ccccc1C(c1ccc(F)cc1)N1CCN(c2c(C#N)c(=O)n(C)c3ccc(Br)nc23)CC1 (single isomer, unassigned) [Example 13, 6-bromo-4-{4-[(4-fluorophenyl)(2-methoxyphenyl)methyl]piperazin-1-yl}-1-methyl-2-oxo-1,2-dihydro-1,5-naphthyridine-3-carbonitrile] | 5400 | 640 | 1300 |  |  |  | 
COc1cc(F)ccc1C(c1ccc(F)cc1)N1CCN(c2c(C#N)c(=O)n(C)c3ccc(Br)nc23)CC1 (single isomer, unassigned) [Example 17, 6-bromo-4-{4-[(4-fluoro-2-methoxyphenyl)(4-fluorophenyl)methyl]piperazin-1-yl}-1-methyl-2-oxo-1,2-dihydro-1,5-naphthyridine-3-carbonitrile] | 3500 | 190 | 350 | 1330 |  |  | 
CC(c1ccc(F)cc1)N1CCN(c2c([N+](=O)[O-])c(=O)n(C)c3ccc(C#N)nc23)CC1 (single isomer, unassigned) [Example 44, 8-(4-(1-(4-fluorophenyl)ethyl)piperazin-1-yl)-5-methyl-7-nitro-6-oxo-5,6-dihydro-1,5-naphthyridine-2-carbonitrile] | 370 | 130 | 350 |  |  |  | 
C#CCn1c(=O)c([N+](=O)[O-])c(N2CCN(C(c3ccc(F)cc3)c3ccc(F)cc3O)CC2)c2nc(C#N)ccc21 (single isomer, unassigned) [Example 121, 8-(4-((4-fluoro-2-hydroxyphenyl)(4-fluorophenyl)methyl)piperazin-1-yl)-7-nitro-6-oxo-5-(prop-2-yn-1-yl)-5,6-dihydro-1,5-naphthyridine-2-carbonitrile] | 6400 | 50 |  |  | 340 |  | 
COc1cc(F)ccc1C(c1ccc(F)cc1)N1CCN(c2c([N+](=O)[O-])c(=O)n(C)c3ccc(C#N)nc23)CC1 (single isomer, unassigned) [Example 124, 8-(4-((4-fluoro-2-methoxyphenyl)(4-fluorophenyl)methyl)piperazin-1-yl)-5-methyl-7-nitro-6-oxo-5,6-dihydro-1,5-naphthyridine-2-carbonitrile] | 750 | 40 | 100 | 570 |  |  | 
C#CCn1c(=O)c([N+](=O)[O-])c(N2CCN(C(C)c3ccc(F)cc3)CC2)c2nc(C#N)ccc21 (single isomer, unassigned) [Example 136, 8-(4-(1-(4-fluorophenyl)ethyl)piperazin-1-yl)-7-nitro-6-oxo-5-(prop-2-yn-1-yl)-5,6-dihydro-1,5-naphthyridine-2-carbonitrile] | 790 |  | 230 |  |  | 90 | 
C#CCn1c(=O)c([N+](=O)[O-])c(N2CCN(C(C)c3ccc(F)cc3)CC2)c2nc(C#N)ccc21 (single isomer, unassigned) [Example 137, 8-(4-(1-(4-fluorophenyl)ethyl)piperazin-1-yl)-7-nitro-6-oxo-5-(prop-2-yn-1-yl)-5,6-dihydro-1,5-naphthyridine-2-carbonitrile] | 1500 |  |  |  | 190 | 230 | 
CC(C)C(c1ccc(F)cc1)N1CCN(c2c(C#N)c(=O)n(C)c3ccc(Cl)nc23)CC1 (single isomer, unassigned) [Example 315, 6-chloro-4-{4-[1-(4-fluorophenyl)-2-methylpropyl]piperazin-1-yl}-methyl-2-oxo-1,2-dihydro-1,5-naphthyridine-3-carbonitrile] | > 240000 |  |  | 10000 |  |  | 
Cn1c(=O)c(C#N)c(N2CCN(C(CC(C)(C)C)c3ccc(F)cc3)CC2)c2nc(Cl)ccc21 (single isomer, unassigned) [Example 377, 6-chloro-4-{4-[1-(4-fluorophenyl)-3,3-dimethylbutyl]piperazin-1-yl}-1-methyl-2-oxo-1,2-dihydro-1,5-naphthyridine-3-carbonitrile] | > 240000 |  |  | 10000 |  |  | 
Cn1c(=O)c(C#N)c(N2CCN(C(c3ccc(F)cc3)C3CCC3)CC2)c2nc(Cl)ccc21 (single isomer, unassigned) [Example 382, 6-chloro-4-{4-[cyclobutyl(4-fluorophenyl)methyl]piperazin-1-yl}-1-methyl-2-oxo-1,2-dihydro-1,5-naphthyridine-3-carbonitrile] | 760 |  |  | 10000 |  |  | 
CC(c1ccc(F)cc1)N1CCN(c2c(C#N)c(=O)n(C)c3ccc(Cl)nc23)CC1 (single isomer, unassigned) [Example 387, 6-chloro-4-{4-[1-(4-fluorophenyl)ethyl]piperazin-1-yl}-1-methyl-2-oxo-1,2-dihydro-1,5-naphthyridine-3-carbonitrile] | 270 |  |  | 3330 |  |  | 
CC(c1ccc(F)cc1)N1CCN(c2c(C#N)c(=O)n(C)c3ccc(Cl)nc23)CC1 (single isomer, unassigned) [Example 388, 6-chloro-4-{4-[1-(4-fluorophenyl)ethyl]piperazin-1-yl}-1-methyl-2-oxo-1,2-dihydro-1,5-naphthyridine-3-carbonitrile] | 51 |  |  |  |  |  | 3330
COc1cc(F)ccc1C(c1ccc(F)cc1)N1CCN(c2c(C#N)c(=O)n(C)c3ccc(C#N)nc23)CC1 (single isomer, unassigned) [Example 406, 8-{4-[(4-fluoro-2-methoxyphenyl)(4-fluorophenyl)methyl]piperazin-1-yl}-5-methy-6-oxo-5,6-dihydro-L5-naphthyridine-2,7-dicarbonitrile] | 13000 |  |  |  |  | 160 | 
COc1cc(F)ccc1C(c1ccc(F)cc1)N1CCN(c2c(C#N)c(=O)n(C)c3ccc(C#N)nc23)CC1 (single isomer, unassigned) [Example 407, 8-{4-[(4-fluoro-2-methoxyphenyl)(4-fluorophenyl)methyl]piperazin-1-yl}-5-methy-6-oxo-5,6-dihydro-L5-naphthyridine-2,7-dicarbonitrile] | 960 |  |  |  |  | 40 | 
Cn1c(=O)c(C#N)c(N2CCN(C(c3ccc(F)cc3)c3ccccc3O)CC2)c2nc(C#N)ccc21 (stereo not drawn) [Example 11, 8-{4-[(4-fluorophenyl)(2-hydroxyphenyl)methyl]piperazin-1-yl}-5-methyl-6-oxo-5,6-dihydro-1,5-naphthyridine-2,7-dicarbonitrile] | 1800 |  | 80 |  |  |  | 
Cn1c(=O)c(C#N)c(N2CCN(Cc3cccc4ccccc34)CC2)c2nc(C#N)ccc21 [Example 404, 5-methyl-8-{4-[(naphthalen-1-yl)methyl]piperazin-1-yl}-6-oxo-5,6-dihydro-1,5-naphthyridine-2,7-dicarbonitrile] | 4900 | 9840 |  |  |  |  | 
Cn1c(=O)c(C#N)c(N2CCN(C(C)(C)c3ccc(F)cc3)CC2)c2nc(Cl)ccc21 [Example 425, 6-chloro-4-{4-[2-(4-fluorophenyl)propan-2-yl]piperazin-1-yl}-1-methyl-2-oxo-1,2-dihydro-1,5-naphthyridine-3-carbonitrile] | 20000 | 2980 |  |  |  |  | 
